These are literature values, as cited in patent publication US20050171206A1, “Therapeutical use” (priority 2004, published 2005).

One data set has as its system SMN2 genes. Particulars: in vitro, cell cultures; cited from earlier work.
The next data set deals with SMA patients. Particulars: published clinical trials; cited from earlier work.

As to `O=C(O)CCCc1ccccc1` [PBA, 4-phenylbutyric acid], in the data set with SMN2 genes, the SMN protein levels entry is reported as “effective in enhancing SMN protein levels”, the “expression of the SMN2 genes” value was “effective in increasing the expression of the SMN2 genes” and the “number of SMN containing nuclear structures” value is reported as “effective in enhancing”.
Take `CC(C)(C)NCC(O)c1ccc(O)c(CO)c1` (stereo not shown) [albuterol]: the “clinical outcome in SMA patients” value in the data set with SMA patients is recorded as “improvement in clinical symptoms”.
On to `NCC1(CC(=O)O)CCCCC1` [gabapentin], for which the “clinical outcome in SMA patients” value with SMA patients is recorded as “did not show improvement of the symptoms”.
Turning to `Nc1nc2ccc(OC(F)(F)F)cc2s1` [riluzole], the “clinical outcome in SMA patients” value in the data set with SMA patients is “no statistically significant improvement”.
Consider `CCCC(=O)[O-].[Na+]` [sodium butyrate], for which the “expression of the SMN2 genes” value in the data set on SMN2 genes is given as “can increase SMN2 gene expression in vitro”.
